# Reference: patent US20140127136A1, “LIPOSOMES USEFUL FOR DRUG DELIVERY TO THE BRAIN” (Merrimack Pharmaceuticals, Inc., priority 2004, published 2014)
# Several values for one entry are separate records, joined by “and”; a condition that tells them apart may be missing. Equal values may be shown once. Where a name gives a salt, the structure may show the parent alone. Read-outs that look alike come from different tables or passages of the source.
# Columns and labels:
# [1] = system: HER2-overexpressing human breast carcinoma cells (BT-474); experiment: MTT cytotoxicity of 6-APE formulations; conditions: 6 hours exposure, 3 days post-incubation
# [2] = system: MCF-7 human breast cancer cells with low EGFR expression; experiment: Cytotoxicity of free, liposomal and anti-EGFR-immunoliposomal 6-APE; type: cell-based; conditions: 6 hours exposure, 3 days post-incubation
# [3] = system: MDA-MB-468 EGFR-overexpressing human breast cancer cells; experiment: as above; type: cell-based; conditions: 6 hours exposure, 3 days post-incubation
# [4] = cited from earlier work; for pKa: aqueous solution, ambient temperature, conjugated amine base, value (I) where two are given
# [5] = MTD seeking study of CPT-11 formulations, single i.v. injection; type: in vivo, Swiss Webster mice
# [6] = Toxicity of free and liposomal irinotecan following CED delivery into the brain; type: in vivo, rats; conditions: for brain tissue toxicity 60 days after CED: single 20 μl CED infusion
# Procedure: Ls-CPT-11 was prepared and the CED procedure used were described in Example 68. To evaluate toxicity, healthy rats received a single infusion of free, i.e., dissolved, or Ls-CPT-11 via CED. […] Rats were euthanized 60 days after CED treatments, and their brains were harvested, sectioned and stained for standard pathology xamination.
# No systemic toxicities, including weight loss or diarrhea, were observed following CED of any of the treatments. Furthermore, no gross neurologic or behavioral changes were noted post-treatment. Indeed, no dose-limiting toxicities for nanoliposomal CPT-11 were identified up to 1.6 mg/rat in a single 0.02 mL infusion, which represented the highest dose achieved without further concentrationg the liposomal sample.
# in vivo [7] = conditions: Sprague-Dawley, rat, brain, other: CED infusion into the brain, 0.06 mg
# [8] = system: subcutaneous xenografts of human colon carcinoma (HT-29); experiment: Antitumor activity of free and liposomal CPT-11 against HT-29 xenografts; type: in vivo, NCR nu/nu athymic nude mice; conditions: 50 mg/kg per injection
# [9] = system: human breast carcinoma BT-474 xenografts; experiment: Antitumor efficacy of CPT-11 liposomes (TEA-Pn) against breast cancer xenografts in nude mice; type: in vivo, NCR nu/nu mice; conditions: 50 mg CPT-11/kg i.v. on days 14, 18, 21, 25
# [10] = mouse, 0.1 mg/ml
# orthotopic U87 tumors = conditions: 60 μg (3 mg/ml), single CED 5 d after implantation
# [11] = Pharmacokinetics of irinotecan formulations administered by CED into normal brain tissue; conditions: 3 mg/ml
# in vivo [12] = conditions: Sprague-Dawley, rat, brain, other: CED infusion into the brain, 0.01 mg
# [13] = Stability and plasma pharmacokinetics of liposomal and F5-immunoliposomal Topotecan in mice; type: in vivo, Swiss Webster mice; conditions: mouse plasma, 1 hour post i.v. injection, 5 mg/kg
# Procedure: Topotecan liposomes containing radioactive lipid label [^3H]-CHE at 1.5 mCi/mmol of phospholipid were prepared according to Examples 11 and 19 using an ethanol lipid solution mixing-extrusion procedure under the following conditions: gradient-forming salt solution: 0.643 N triethylammonium sucrose octasulfate; polycarbonate membrane extrusion: 15 passages through 2 stacked PCTE filters, 80 nm pore size; Topotecan loading: drug/phospholipid input ratio 350 mg/mmol (calculated for Topotecan free base); F5 scFv conjugation was performed as described in Example 19. The liposomes had the following characteristics:
# The study was performed generally as in Example 22. […] At 1 hour, 8 hour, or 24 hour post injection time points, 3 animals per time point were exsanguinated via open heart punction under Ketamine/Xylazine anesthesia, the blood was collected into tubes containing PBS-EDTA, and assayed for Topotecan (fluorometry) and liposome lipid (by radioactivity scintillation counting). […] The amount of drug remaining encapsulated in the liposomes at each time point was calculated for each animal individually by comparing drug/lipid radioactivity ratio of the plasma samples with that of the injected liposomes. […]
# [14] = Animal body weights in the BT-474 Topotecan MTD-fraction study; type: in vivo, nude mice; conditions: at MTD, i.v. at day 19, 23, 27
# Source text: The control group received injections of physiological saline. […] There was no significant difference in efficacy between free and liposomal drug given at their respective MTD or at identical fractions (½, ¼, or ⅛) thereof.
# [15] = Maximum tolerated dose of free and liposomal Topotecan, 3 weekly i.v. injections; conditions: female, Swiss-Webster, mouse, in vivo, iv
# SKBr-3 cells = experiment: MTT cytotoxicity of Topotecan formulations (TEA-Pn); type: cell-based; conditions: Homo sapiens, SK-BR-3, read-out: IC50 (drug dose resulting in 50% growth inhibition), 4-6 hours exposure, 4 days post-incubation
# [16] = system: U87MG intracranial glioblastoma xenograft; experiment: Therapeutic efficacy of liposomal topotecan by CED against intracranial glioma xenografts; type: in vivo, athymic rats; conditions: CED 20 μl, 0.5 mg/ml, 7 days after tumor implantation
# Procedure: Twenty one athymic rats received the implantation of U87MG tumor cells (5×10^5 cells/10 μl HBSS) into their right striatum and were divided randomly into three groups. Under deep isofluorane anesthesia, rats were placed in a small-animal stereotaxic frame (David Kopf Instruments, Tujunga, Calif.). […] After 2 min, another 5 μl was injected at a depth of 4 mm. After an additional 2 min, the needle was removed and the wound was closed with sutures.
# All control rats and rats treated with free TPT developed neurological symptoms around day 17-26 due to large intracranial tumors that were confirmed by histology.
# To evaluate the treatment of larger tumors, the U87MG intracranial model was developed in 12 rats. However, in this experiment CED was performed 12 days after tumor implantation (FIG. 48B). […] Therefore, to achieve proper coverage of the tumor, there is the need for guided and image-monitored administration of the liposomal drug.
# [17] = Brain tissue pharmacokinetics of free and liposomal topotecan delivered by CED
# [18] = system: subcutaneous xenograft tumors of BT-474 human breast carcinoma; experiment: Antitumor efficacy of non-targeted and HER2-targeted liposomal vincristine; type: in vivo, nude mice; conditions: 2 mg VCR/kg weekly i.v. for three weeks
# [19] = system: HT-29 human colon carcinoma xenografts; conditions: 5 mg/kg i.v. every three days, four injections
# [20] = system: HER2-overexpressing human non-small cell lung carcinoma cells CaLu-3; conditions: MTT
# [21] = LD50 of triethylammonium sulfate compared with doxorubicin; conditions: in vivo
# [22] = inj. dose 60 mg/kg, single i.v., individual mice, hydrochloride, 60 mg/kg
# [23] = inj. dose 70 mg/kg, single i.v., individual mice, hydrochloride, 70 mg/kg
# [24] = inj. dose 80 mg/kg, single i.v., individual mice, hydrochloride, 80 mg/kg
# [25] = rat brain tissue, CED 20 μl, 0.5 mg/ml
molecule,measurement,setting,value
6-(3-aminopropyl)ellipticine [free APE],IC50,[1],0.26 μg APE/ml
same,IC50,[2],about 0.5 μg/ml
same,IC50,[3],about 0.1 μg/ml
CC(C)(N)CO [2-amino-2-methylpropanol],pKa,[4],9.69
CC(C)N [Isopropylamine],pKa,[4],10.53
"CN1CCN(C)CC1 [N,N′-dimethylpiperazine]",pKa,[4],9.66
same,pKa (II),[4]; second ammonium group,5.2
OCCN1CCOCC1 [N-hydroxyethylmorpholine],pKa,[4],7.39
OCCN1CCCC1 [N-hyrdoxyethylpyrrolidine],pKa,[4],9.44
CN1CCCCC1 [N-methylpiperidine],pKa,[4],10.38
NC1CCCCC1 [cyclohexylamine],pKa,[4],10.66
C1CCC(NC2CCCCC2)CC1 [dicyclohexylamine],pKa,[4],10.4
CCN(C)CC [diethylmethylamine],pKa,[4],10.35
CCCN(C)C [dimethylpropylamine],pKa,[4],10.15
"CCc1c2c(nc3ccc(OC(=O)N4CCC(N5CCCCC5)CC4)cc13)-c1cc3c(c(=O)n1C2)COC(=O)[C@]3(O)CC [free CPT-11, Irinotecan hydrochloride]",MTD at 7 days,"[5]; Swiss Webster, mouse, in vivo, iv, acute, single i.v. injection, mice",80 mg/kg
same,Animal body weight at day 1 post injection,[5]; [22],20.4 g and 19.1 g and 20.0 g and 18.7 g
same,Animal body weight at day 2 post injection,[5]; [22],20.9 g and 19.4 g
same,Animal body weight at day 4 post injection,[5]; [22],22.1 g and 20.2 g
same,Animal body weight at day 6 post injection,[5]; [22],22.2 g and 20.4 g
same,Animal body weight at day 11 post injection,[5]; [22],22.5 g and 21.1 g
same,Animal body weight at day 1 post injection,[5]; [23],20.0 g and 21.8 g
same,Animal body weight at day 2 post injection,[5]; [23],20.6 g and 22.4 g
same,Animal body weight at day 1 post injection,[5]; [24],19.9 g and 20.8 g
same,Animal body weight at day 2 post injection,[5]; [24],20.1 g and 21.1 g
same,Animal body weight at day 3 post injection,[5]; [24],19.3 g and 20.6 g (2×) and 21.4 g and 21.9 g
same,outcome after injection,"[5]; inj. dose 90 mg/kg, single i.v., individual mice",died 1-2 min after injection
same,outcome after injection,"[5]; inj. dose 100 mg/kg, single i.v., individual mice",died 1-2 min after injection
same,brain tissue toxicity 60 days after CED,[6]; 60 μg,no apparent tissue toxicity
same,brain tissue toxicity 60 days after CED,[6]; 0.4 mg/rat,extensive tissue necrosis within the CNS
same,highest tolerable dose,[6]; CED into rat brain,60 μg/infusion
same,MRT,in vivo [7],9.6 h
same,animals tumor-free at the end of study without signs of regrowth,[8],no animals without tumor regrowth
same,effect on the tumor growth,[8],only minor effect on the tumor growth
same,Average tumor doubling time,[8]; 4 i.v. injections at intervals of 4 days,4.8 days
same,average tumor size at day 46,[9],"about 1,000 mm^3"
same,effect on tumor growth,[9],reduced the rate of tumor growth
same,"CPT-11, % carboxylate",[10]; 2 h,35.2 ± 1.9%
same,"CPT-11, % lactone",[10]; 2 h,1.9 ± 0.4%
same,"SN-38, % carboxylate",[10]; 2 h,58.4 ± 2.1%
same,"SN-38, % lactone",[10]; 2 h,4.4 ± 0.1%
same,"CPT-11, % carboxylate",[10]; 12 h,11.5 ± 0.9%
same,"CPT-11, % lactone",[10]; 12 h,<0.1%
same,"SN-38, % carboxylate",[10]; 12 h,78.6 ± 1.3%
same,"SN-38, % lactone",[10]; 12 h,9.9 ± 0.8%
same,"CPT-11, % carboxylate",[10]; 24 h,<0.1%
same,"CPT-11, % lactone",[10]; 24 h,<0.1%
same,"SN-38, % carboxylate",[10]; 24 h,77.5 ± 9.8%
same,Median survival,orthotopic U87 tumors,28.5 days
same,AUC∞,[11],16.4 µg·days/g
same,"weight loss during treatment, % of pre-treatment value",50 mg/kg per injection (free: permanent; liposomal: transient),about 6%
same,condition after drug injection,"50 mg/kg, for about one hour after injection",temporary morbidity
"CC[C@@]1(O)C(=O)OCc2c1cc1n(c2=O)Cc2cc3c(CN(C)C)c(O)ccc3nc2-1 [free Topotecan, Topotecan Hydrochloride]",MRT,in vivo [12],2.4 h
same,half-life,in vivo [12],2.4 h
same,"Drug, % of injected dose",[13],less than 1%
same,"transient decrease in body weight, % of the pre-treatment value",[14],about 15%
same,MTD at 3 once-a-week injections,[15],18.4 mg/kg
same,MTD at 10 days,[15],11.7 to 21 mg/kg
same,IC50,SKBr-3 cells,> 30 µg/mL
same,survival / anti-tumor effect,[16],no survival benefits
same,AUC∞,[17]; [25],2.8 µg·days/g
same,CL,[17]; [25],3.6 g/day
same,persistence in brain tissue post CED (detected as long as / completely cleared within),"[17]; rat brain, CED",≤ 1 days
"CC[C@]1(O)C[C@H]2CN(CCc3c([nH]c4ccccc34)[C@@](C(=O)OC)(c3cc4c(cc3OC)N(C=O)[C@H]3[C@@](O)(C(=O)OC)[C@H](OC(C)=O)[C@]5(CC)C=CCN6CC[C@]43[C@@H]65)C2)C1 [free VCR, vincristine sulfate]",comparative efficacy,[18],less effective than either F5-ILs-VCR or Ls-VCR-Cit
"CCC1=C[C@@H]2CN(C1)Cc1c([nH]c3ccccc13)[C@@](C(=O)OC)(c1cc3c(cc1OC)N(C)[C@H]1[C@@](O)(C(=O)OC)[C@H](OC(C)=O)[C@]4(CC)C=CCN5CC[C@]31[C@@H]54)C2.O=C(O)C(O)C(O)C(=O)O.O=C(O)C(O)C(O)C(=O)O [free VRB, vinorelbine bitartrate]",effect on tumor growth,[19],the tumors always continued to grow
same,IC50,[20],1.2 µg/mL
c1c[nH]cn1 [imidazole],pKa,[4],7.03
CC(C)(C)N [tert-butylamine],pKa,[4],10.68
triethylammonium sulfate,LD50 relative to the LD50 of doxorubicin,[21],about 40 times
